In paper PMC7457602 (bioRxiv, 2020):

Target: SARS-CoV-2 3CLpro (Severe acute respiratory syndrome coronavirus 2, UniProt P0DTD1)

O=c1c2ccccc2[se]n1-c1ccccc1 [Ebselen]
activity in the transfection-based assay (rescue of 3CLpro induced cytotoxicity): did not observe activity
